Results on three molecules are retold here after patent publication US7491721B2, “Antimycobacterial pharmaceutical composition” (priority 2004, dated 2009).

≈ marks a conversion by molar mass, not a printed value. Read-outs that look alike come from different tables or passages of the source.

One assay has as its system M. tuberculosis isolates. The assay can be described thus: microbe, parasite or virus in culture. Type of assay: cell-based, Mycobacterium tuberculosis. The following applies: for MIC50 / MIC90: Mycobacterium tuberculosis; for MIC50: read-out: MIC against M. tuberculosis isolates, MIC50; for MIC90: read-out: MIC against M. tuberculosis isolates, MIC90.
A further assay has as its system resistant strain of MTB. Format: in vivo, Mycobacterium tuberculosis. The following applies: for dose giving 2 log reduction in the organs: animals infected with resistant strains.
The test system of assay [1] is sensitive/resistant strains of M. tuberculosis. Description: Murine model of pulmonary tuberculosis, text statements not split by strain. Type of assay: in vivo, Mycobacterium tuberculosis. The conditions noted are these: monotherapy.
Setting [2] is: combination study, one month, doses mg/kg: (I) 25.0 where present, INH 25.0, RIF 20.0, PYR 150.0, ETH 100.0.
Where [3] appears, read: combination study, three months, doses mg/kg: (I) 25.0 where present, INH 25.0, RIF 20.0, PYR 150.0, ETH 100.0.
Setting [4] is: combination study, two months, doses mg/kg: (I) 25.0 where present, INH 25.0, RIF 20.0, PYR 150.0, ETH 100.0.
Where [5] appears, read: monotherapy 12.5 mg/kg, 8 Weeks Treatment (two months).
Setting [6] is: monotherapy 12.5 mg/kg, 12 Weeks Treatment (three months).
Where [7] appears, read: monotherapy 12.5 mg/kg, one month of treatment.
[8] abbreviates: monotherapy 25 mg/kg, 8 Weeks Treatment (two months).
[9] abbreviates: monotherapy 25 mg/kg, 12 Weeks Treatment (three months).
The mark [10] stands for this setting: monotherapy 25 mg/kg, one month of treatment.
The mark [11] stands for this setting: monotherapy 50 mg/kg, 8 Weeks Treatment (two months).
The mark [12] stands for this setting: monotherapy 50 mg/kg, 12 Weeks Treatment (three months).
[13] abbreviates: monotherapy 50 mg/kg, one month of treatment.

Turning to `CO[C@H]1/C=C/O[C@@]2(C)Oc3c(C)c(O)c4c(O)c(c(/C=N/N5CCN(C)CC5)c(O)c4c3C2=O)NC(=O)/C(C)=C\C=C\[C@H](C)[C@H](O)[C@@H](C)[C@@H](O)[C@@H](C)[C@H](OC(C)=O)[C@@H]1C` [Rifampicin], in the assay with M. tuberculosis isolates, the MIC50 amounted to 4 µg/mL (≈ 4.86 µM). The MIC90 in the assay on M. tuberculosis isolates was over 16 µg/mL. Besides, the “Mean Log10CFU in organs of mice infected with resistant strain of MTB, Lung” value (shortened to “Mean Log10CFU in organs of mice infected … Lung”) worked out at 3.05 ± 0.43 Log10CFU in the assay on resistant strain of MTB (setting [2]), 0.94 ± 1.04 Log10CFU in the assay on resistant strain of MTB (setting [3]) and 2.45 ± 1.15 Log10CFU in the assay on resistant strain of MTB (setting [4]). Further, the “Mean Log10CFU in organs of mice infected with resistant strain of MTB, Spleen” value (shortened to “Mean Log10CFU in organs … Spleen”) with resistant strain of MTB (setting [2]) was 2.44 ± 0.32 Log10CFU; in the assay with resistant strain of MTB (setting [3]) it was 1.78 ± 1.38 Log10CFU; in the assay with resistant strain of MTB (setting [4]) it was 2.60 ± 0.59 Log10CFU.
On to `NNC(=O)c1ccncc1` [Isoniazid], for which, in the assay with M. tuberculosis isolates, the MIC50 was 4 µg/mL (≈ 29.2 µM). Moreover, the MIC90 in the assay with M. tuberculosis isolates was over 16 µg/mL. Also, the “dose giving 2 log reduction in the organs” value with resistant strain of MTB is recorded as over 50 mg/kg. Also, the “Mean Log10CFU in organs of mice infected … Lung” value amounted to 5.23 ± 0.27 Log10CFU with resistant strain of MTB (setting [2]); 5.37 ± 0.35 Log10CFU with resistant strain of MTB (setting [3]); 5.15 ± 0.42 Log10CFU in the assay on resistant strain of MTB (setting [4]); 6.01 ± 0.9 Log10CFU in the assay with resistant strain of MTB (setting [5]); 5.1 ± 0.7 Log10CFU with resistant strain of MTB (setting [6]); 5.47 ± 0.54 Log10CFU with resistant strain of MTB (setting [7]). For the same molecule, the “Mean Log10CFU in organs of mice infected … Lung” value in the assay with resistant strain of MTB (setting [8]) worked out at 5.91 ± 0.35 Log10CFU; with resistant strain of MTB (setting [9]) it was 4.79 ± 0.55 Log10CFU; in the assay on resistant strain of MTB (setting [10]) it was 5.34 ± 0.34 Log10CFU; with resistant strain of MTB (setting [11]), 5.42 ± 0.74 Log10CFU; with resistant strain of MTB (setting [12]) it was 4.76 ± 0.20 Log10CFU; in the assay on resistant strain of MTB (setting [13]), 4.77 ± 0.61 Log10CFU. The “Mean Log10CFU in organs … Spleen” value in the assay with resistant strain of MTB (setting [2]) was 4.61 ± 0.43 Log10CFU; with resistant strain of MTB (setting [3]), 5.19 ± 0.65 Log10CFU; in the assay with resistant strain of MTB (setting [4]), 5.36 ± 0.84 Log10CFU; in the assay with resistant strain of MTB (setting [5]) it was 5.88 ± 0.41 Log10CFU; with resistant strain of MTB (setting [6]) it was 5.72 ± 0.17 Log10CFU; in the assay with resistant strain of MTB (setting [7]) it was 5.01 ± 0.45 Log10CFU. The “Mean Log10CFU in organs … Spleen” value turned out to be 5.7 ± 0.34 Log10CFU in the assay with resistant strain of MTB (setting [8]); 5.62 ± 0.63 Log10CFU with resistant strain of MTB (setting [9]); 4.97 ± 0.52 Log10CFU in the assay with resistant strain of MTB (setting [10]); 5.1 ± 0.61 Log10CFU with resistant strain of MTB (setting [11]); 5.64 ± 066 Log10CFU with resistant strain of MTB (setting [12]); 4.83 ± 0.68 Log10CFU in the assay on resistant strain of MTB (setting [13]).
Take `Cc1c(CN2CCN(c3cccc(C(F)(F)F)c3)CC2)cc(-c2ccccc2)n1NC(=O)c1ccncc1` [Compound of formula (I)]: the “reduction in viable bacilli in the target organs as compared to control animals” value in assay [1] (one month (Table III)) was over 2 log. Also, the “animals with complete absence of mycobacterium” value in assay [1] (treated for three months) amounted to 33%. The MIC50 in the assay with M. tuberculosis isolates was found to be 0.12 µg/mL. Also, in the assay on M. tuberculosis isolates, the MIC90 is 0.25 µg/mL. Besides, the “MIC against M. tuberculosis isolates, Range” value against M. tuberculosis isolates (approximately 200 sensitive and resistant clinical isolates) is 0.12 to 0.5 µg/mL. In the assay with resistant strain of MTB, the “dose giving 2 log reduction in the organs” value is given as 12.5 mg/kg. Also, the “Mean Log10CFU in organs of mice infected … Lung” value was determined as 2.86 ± 0.37 Log10CFU with resistant strain of MTB (setting [2]); 1.30 ± 1.02 Log10CFU in the assay with resistant strain of MTB (setting [3]); 2.37 ± 0.81 Log10CFU in the assay on resistant strain of MTB (setting [4]); 3.32 ± 0.6 Log10CFU with resistant strain of MTB (setting [5]); 2.51 ± 0.18 Log10CFU with resistant strain of MTB (setting [6]); 2.97 ± 0.53 Log10CFU in the assay with resistant strain of MTB (setting [7]). The “Mean Log10CFU in organs of mice infected … Lung” value in the assay with resistant strain of MTB (setting [8]) came to 2.83 ± 0.66 Log10CFU; in the assay with resistant strain of MTB (setting [9]), 1.86 ± 0.97 Log10CFU; in the assay on resistant strain of MTB (setting [10]), 2.70 ± 0.36 Log10CFU; in the assay with resistant strain of MTB (setting [11]), 2.51 ± 0.72 Log10CFU; in the assay on resistant strain of MTB (setting [12]) it was 1.79 ± 0.92 Log10CFU; in the assay with resistant strain of MTB (setting [13]), 2.59 ± 0.22 Log10CFU. For the same molecule, the “Mean Log10CFU in organs … Spleen” value in the assay on resistant strain of MTB (setting [2]) was 2.25 ± 0.18 Log10CFU; in the assay on resistant strain of MTB (setting [3]), 1.64 ± 1.12 Log10CFU; with resistant strain of MTB (setting [4]) it was 2.52 ± 0.48 Log10CFU; in the assay with resistant strain of MTB (setting [5]) it was 3.1 ± 1.13 Log10CFU; in the assay on resistant strain of MTB (setting [6]) it was 2.6 ± 0.34 Log10CFU; with resistant strain of MTB (setting [7]) it was 3.02 ± 0.22 Log10CFU. The “Mean Log10CFU in organs … Spleen” value in the assay on resistant strain of MTB (setting [8]) is 2.61 ± 0.56 Log10CFU; in the assay with resistant strain of MTB (setting [9]), 1.79 ± 0.92 Log10CFU; with resistant strain of MTB (setting [10]), 2.54 ± 0.20 Log10CFU; with resistant strain of MTB (setting [11]) it was 2.37 ± 0.61 Log10CFU; in the assay with resistant strain of MTB (setting [12]), 1.69 ± 0.88 Log10CFU; in the assay on resistant strain of MTB (setting [13]), 2.32 ± 0.39 Log10CFU.
